# Test results from the SangsterLogP compilation.
# Test: method code SF, from PMID: 17665861
# Settings: pH 7.4
row,SMILES,logD
1,COc1ccccc1N1C2=NNC(c3ccccc3)C2SC12C(=O)Nc1ccccc12 (stereo not drawn),1.19
2,O=C1Nc2ccccc2C12SC1C(=NNC1c1ccc([N+](=O)[O-])cc1)N2c1ccc(Cl)cc1 (stereo not drawn),1.31
3,COc1ccc(C2NN=C3C2SC2(C(=O)Nc4ccccc42)N3c2ccc(Br)cc2)cc1 (stereo not drawn),1.4
4,O=C1Nc2ccccc2C12SC1C(=NNC1c1ccc([N+](=O)[O-])cc1)N2c1ccccc1[N+](=O)[O-] (stereo not drawn),1.45
5,COc1ccccc1N1C2=NNC(c3ccccc3O)C2SC12C(=O)Nc1ccccc12 (stereo not drawn),1.14
6,O=C1Nc2ccccc2C12SC1C(=NNC1c1ccccc1)N2c1ccccc1[N+](=O)[O-] (stereo not drawn),1.14
7,COc1ccc(C2NN=C3C2SC2(C(=O)Nc4ccccc42)N3c2ccccc2[N+](=O)[O-])cc1 (stereo not drawn),1.35
8,O=C1Nc2ccccc2C12SC1C(=NNC1c1ccccc1Cl)N2c1ccccc1[N+](=O)[O-] (stereo not drawn),1.17
9,O=C1Nc2ccccc2C12SC1C(=NNC1c1ccccc1Cl)N2c1cccc2ccccc12 (stereo not drawn),1.21
10,O=C1Nc2ccccc2C12SC1C(=NNC1c1ccc([N+](=O)[O-])cc1)N2c1ccc(Br)cc1 (stereo not drawn),1.35
11,COc1ccc(C2NN=C3C2SC2(C(=O)Nc4ccccc42)N3c2ccccc2OC)cc1 (stereo not drawn),1.23
12,O=C1Nc2ccccc2C12SC1C(=NNC1c1ccccc1)N2c1ccc(Br)cc1 (stereo not drawn),1.24
13,O=C1Nc2ccccc2C12SC1C(=NNC1c1ccccc1)N2c1ccc(Cl)cc1 (stereo not drawn),1.1
14,O=C1Nc2ccccc2C12SC1C(=NNC1c1ccccc1Cl)N2c1ccccc1 (stereo not drawn),1.22
15,COc1ccccc1N1C2=NNC(c3ccc(Cl)cc3)C2SC12C(=O)Nc1ccccc12 (stereo not drawn),1.26
16,O=C1Nc2ccccc2C12SC1C(=NNC1c1ccccc1O)N2c1ccc(Br)cc1 (stereo not drawn),1.38
17,O=C1Nc2ccccc2C12SC1C(=NNC1c1ccccc1[N+](=O)[O-])N2c1cccc2ccccc12 (stereo not drawn),1.17
18,O=C1Nc2ccccc2C12SC1C(=NNC1c1ccccc1Cl)N2c1ccc(Cl)cc1 (stereo not drawn),1.31
19,O=C1Nc2ccccc2C12SC1C(=NNC1c1ccccc1O)N2c1ccccc1 (stereo not drawn),1.25
20,COc1ccc(C2NN=C3C2SC2(C(=O)Nc4ccccc42)N3c2cccc3ccccc23)cc1 (stereo not drawn),1.2
21,O=C1Nc2ccccc2C12SC1C(=NNC1c1ccccc1Cl)N2c1ccc(Br)cc1 (stereo not drawn),1.45
22,COc1ccccc1N1C2=NNC(c3ccccc3[N+](=O)[O-])C2SC12C(=O)Nc1ccccc12 (stereo not drawn),1.11
23,COc1ccc(C2NN=C3C2SC2(C(=O)Nc4ccccc42)N3c2ccc(Cl)cc2)cc1 (stereo not drawn),1.41
